Results from ChEMBL document CHEMBL1201862, “PubChem BioAssay data set” (2004).
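These data come from cells grown in 96-well plates and exposed to compound for 48 hours at five concentrations. Abbreviation: GI50, concentration required for 50% inhibition of growth.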 Active and inactive are the calls of the source. Rule as the data show it: active = GI50 up to about 1.1 µM and inactive = higher.

What was measured:
Assay in all cases: growth of human tumour cells (NCI), 48 h
OVCAR-4 = tested on: OVCAR-4
NCI-H23 = tested on: NCI-H23
EKVX = tested on: EKVX
OVCAR-3 = tested on: OVCAR-3
HL-60 = tested on: HL-60
HOP-62 = tested on: HOP-62
SR = tested on: SR
A498 = tested on: A498
M19-MEL = tested on: M19-MEL
KM12 = tested on: KM12
NCI-H460 = tested on: NCI-H460
MOLT-4 = tested on: MOLT-4
U-251 = tested on: U-251
HT-29 = tested on: HT-29
K562 = tested on: K562
KM-20L2 = tested on: KM-20L2
NCI-H522 = tested on: NCI-H522
SF-268 = tested on: SF-268
UO-31 = tested on: UO-31
SNB-19 = tested on: SNB-19
DMS-114 = tested on: DMS-114
RPMI-8226 = tested on: RPMI-8226
COLO 205 = tested on: COLO 205
ACHN = tested on: ACHN
SNB-78 = tested on: SNB-78
HOP-92 = tested on: HOP-92
SW-620 = tested on: SW-620
TK-10 = tested on: TK-10
SK-MEL-28 = tested on: SK-MEL-28
SN12C = tested on: SN12C
CCRF-CEM = tested on: CCRF-CEM
A549 = tested on: A549
SK-OV-3 = tested on: SK-OV-3
M14 = tested on: M14
HOP-18 = tested on: HOP-18
CAKI-1 = tested on: CAKI-1
DMS-273 = tested on: DMS-273
HCT-116 = tested on: HCT-116
IGROV-1 = tested on: IGROV-1
UACC-62 = tested on: UACC-62
786-0 = tested on: 786-0
OVCAR-5 = tested on: OVCAR-5
LOX IMVI = tested on: LOX IMVI
SK-MEL-2 = tested on: SK-MEL-2
NCI-H226 = tested on: NCI-H226
HCT-15 = tested on: HCT-15
LXFL 529 = tested on: LXFL 529
SF-539 = tested on: SF-539
SNB-75 = tested on: SNB-75
SK-MEL-5 = tested on: SK-MEL-5
OVCAR-8 = tested on: OVCAR-8
RXF 393 = tested on: RXF 393
UACC-257 = tested on: UACC-257
Malme-3M = tested on: Malme-3M
HCC 2998 = tested on: HCC 2998
DLD-1 = tested on: DLD-1

SMILES: NC(CCSCCF)C(=O)O (stereo unspecified)
- GI50 (OVCAR-4): > 100 µM (inactive)
- GI50 (NCI-H23): > 100 µM (inactive)
- GI50 (EKVX): > 100 µM (inactive)
- GI50 (OVCAR-3): > 100 µM (inactive)
- GI50 (HL-60): > 100 µM (inactive)
- GI50 (HOP-62): > 100 µM (inactive)
- GI50 (SR): > 100 µM (inactive)
- GI50 (A498): > 100 µM (inactive)
- GI50 (M19-MEL): > 100 µM (inactive)
- GI50 (KM12): > 100 µM (inactive)
- GI50 (NCI-H460): > 100 µM (inactive)
- GI50 (MOLT-4): > 100 µM (inactive)
- GI50 (U-251): > 100 µM (inactive)
- GI50 (HT-29): > 100 µM (inactive)
- GI50 (K562): > 100 µM (inactive)
- GI50 (KM-20L2): > 100 µM (inactive)
- GI50 (NCI-H522): > 100 µM (inactive)
- GI50 (SF-268): > 100 µM (inactive)
- GI50 (UO-31): > 100 µM (inactive)
- GI50 (SNB-19): > 100 µM (inactive)
- GI50 (DMS-114): > 100 µM (inactive)
- GI50 (RPMI-8226): > 100 µM (inactive)
- GI50 (COLO 205): > 100 µM (inactive)
- GI50 (ACHN): > 100 µM (inactive)
- GI50 (SNB-78): > 100 µM (inactive)
- GI50 (HOP-92): > 100 µM (inactive)
- GI50 (SW-620): > 100 µM (inactive)
- GI50 (TK-10): > 100 µM (inactive)
- GI50 (SK-MEL-28): > 100 µM (inactive)
- GI50 (SN12C): > 100 µM (inactive)
- GI50 (CCRF-CEM): > 100 µM (inactive)
- GI50 (A549): > 100 µM (inactive)
- GI50 (SK-OV-3): > 100 µM (inactive)
- GI50 (M14): > 100 µM (inactive)
- GI50 (HOP-18): > 100 µM (inactive)
- GI50 (CAKI-1): > 100 µM (inactive)
- GI50 (DMS-273): > 100 µM (inactive)
- GI50 (HCT-116): > 100 µM (inactive)
- GI50 (IGROV-1): > 100 µM (inactive)
- GI50 (UACC-62): > 100 µM (inactive)
- GI50 (786-0): > 100 µM (inactive)
- GI50 (OVCAR-5): > 100 µM (inactive)
- GI50 (LOX IMVI): > 100 µM (inactive)
- GI50 (SK-MEL-2): > 100 µM (inactive)
- GI50 (NCI-H226): > 100 µM (inactive)
- GI50 (HCT-15): > 100 µM
- GI50 (LXFL 529): > 100 µM (inactive)
- GI50 (SF-539): > 100 µM (inactive)

SMILES: CCN(CC)C(=O)N1CCN(C=S)CC1
- GI50 (OVCAR-4): > 100 µM (inactive)
- GI50 (NCI-H23): > 100 µM (inactive)
- GI50 (EKVX): > 100 µM (inactive)
- GI50 (SNB-75): > 100 µM (inactive)
- GI50 (OVCAR-3): > 100 µM (inactive)
- GI50 (SK-MEL-5): > 100 µM (inactive)
- GI50 (HL-60): > 100 µM (inactive)
- GI50 (HOP-62): > 100 µM (inactive)
- GI50 (SR): > 100 µM (inactive)
- GI50 (A498): > 100 µM (inactive)
- GI50 (OVCAR-8): > 100 µM (inactive)
- GI50 (RXF 393): > 100 µM (inactive)
- GI50 (UACC-257): > 100 µM (inactive)
- GI50 (M19-MEL): > 100 µM (inactive)
- GI50 (KM12): > 100 µM (inactive)
- GI50 (NCI-H460): > 100 µM (inactive)
- GI50 (MOLT-4): > 100 µM (inactive)
- GI50 (U-251): > 100 µM (inactive)
- GI50 (HT-29): > 100 µM (inactive)
- GI50 (K562): > 100 µM (inactive)
- GI50 (KM-20L2): > 100 µM (inactive)
- GI50 (NCI-H522): > 100 µM (inactive)
- GI50 (SF-268): > 100 µM (inactive)
- GI50 (UO-31): > 100 µM (inactive)
- GI50 (Malme-3M): > 100 µM (inactive)
- GI50 (SNB-19): > 100 µM (inactive)
- GI50 (HCC 2998): > 100 µM (inactive)
- GI50 (DMS-114): > 100 µM (inactive)
- GI50 (COLO 205): > 100 µM (inactive)
- GI50 (ACHN): > 100 µM (inactive)
- GI50 (SNB-78): > 100 µM (inactive)
- GI50 (SW-620): > 100 µM (inactive)
- GI50 (TK-10): > 100 µM (inactive)
- GI50 (SK-MEL-28): > 100 µM (inactive)
- GI50 (SN12C): > 100 µM (inactive)
- GI50 (CCRF-CEM): > 100 µM (inactive)
- GI50 (A549): > 100 µM (inactive)
- GI50 (SK-OV-3): > 100 µM (inactive)
- GI50 (M14): > 100 µM (inactive)
- GI50 (HOP-18): > 100 µM (inactive)
- GI50 (DMS-273): > 100 µM (inactive)
- GI50 (HCT-116): > 100 µM (inactive)
- GI50 (IGROV-1): > 100 µM (inactive)
- GI50 (UACC-62): > 100 µM (inactive)
- GI50 (786-0): > 100 µM (inactive)
- GI50 (OVCAR-5): > 100 µM (inactive)
- GI50 (LOX IMVI): > 100 µM (inactive)
- GI50 (SK-MEL-2): > 100 µM (inactive)
- GI50 (NCI-H226): > 100 µM (inactive)
- GI50 (HCT-15): > 100 µM
- GI50 (LXFL 529): > 100 µM (inactive)
- GI50 (SF-539): > 100 µM (inactive)
- GI50 (DLD-1): > 100 µM (inactive)
